{"source": "patent US11203582B2", "about": "“Benzamide derivatives for inhibiting endoplasmic reticulum (ER) stress” (The Board of Regents of the University of Oklahoma, priority 2017, dated 2021)", "key": {"βTC6 cells": {"tested_on": "βTC6 cells", "assay": "Cell survival assay, intracellular ATP, βTC6 cells treated with Tm", "assay_type": "cell-based", "details": "72 h, FIG. 2C", "description": "The measurement of intracellular ATP level was use as a surrogate assay for cell viability. […] To confirm the authenticity of 13d's protective effect on β-cell viability (not simply an increase in ATP-specific measurement), we used the MTT assay, which measures the activity of NAD(P)H-dependent cellular oxidoreductase enzymes, as an orthogonal method to measure cell viability. […] To determine whether the protective effect of 13d on β-cells is specific to INS-1 cells, another β-cell line, βTC6, was used. […] In addition, compound 13d on its own had no effect on β-cell viability in both cell lines (FIG. 2C-D). […]\nINS-1 cells or βTC6 cells were seeded at 3×10^3 cells/well in a 384-well plate and treated with compounds at the indicated concentrations. […] Cell viability was measured with an EnVision multilabel plate reader (PerkinElmer, MA, USA)."}, "INS-1 cells [1]": {"tested_on": "INS-1 cells", "assay": "Live-cell phase-contrast imaging of Tm-treated INS-1 cells", "assay_type": "cell-based, rat", "design": "dose or concentration left out as unconfirmed", "details": "48 h, FIG. 3B", "procedure": "(A) INS-1 cells were treated with or without Tm (0.1 m/mL) in the presence of 13d at indicated concentrations or DMSO for 24 h. Cleaved caspase-3 and PARP were determined by Western blotting. α-Tubulin was used as a loading control. The data shown are representative of 3 independent experiments. (B) INS-1 cells were treated with or without Tm (0.1 m/mL) in the presence of 13d (0.111M) or DMSO for 48 h, and live-cell phase-contrast images were acquired (magnification 10×). The images shown are representative of 3 independent experiments. (C) TUNEL staining of INS-1 cells. INS-1 cells were treated with 0.111 g/mL of Tm with or without compound 13d for 24 h before TUNEL staining. DAPI was used as a nuclear marker. Magnification is 20×. The images shown are representative of 3 independent experiments. (D) Quantification of TUNEL staining from 20 fields of images. ** P<0.01 compared with Tm treatment alone."}, "INS1 mRNA": {"tested_on": "INS1 mRNA", "assay": "qRT-PCR of INS1 mRNA in Tm-treated INS-1 cells", "assay_type": "cell-based, rat", "details": "Tm co-treatment, 24 h", "procedure": "(§1) (A-D) INS-1 cells were treated with or without Tm (0.1 m/mL) in the presence of 13d at indicated concentrations or DMSO for 24 h. The mRNA levels of INS1 (A), INS2 (B), PDX1 (C), and MafA (D), were analyzed by qRT-PCR. Relative mRNA levels were normalized against the housekeeping gene Cyclophilin A using the comparative CT method. The results are the means of 3 replicate wells and are representative of 3 independent experiments. * P<0.05 and ** P<0.01 compared with Tm treatment alone. Bars indicate SD. (E) Insulin secretion by INS-1 cells incubated with 1.7 mM and 20 mM glucose in the presence or absence of Tm (0.1 μg/mL) and 13d. Secreted insulin was measured by ELISA after 24 h treatment. * P<0.05. The amount of insulin secreted in response to 1.7 mM glucose in the absence of Tm was set to 1.0 and was normalized with total protein concentration.\n(§2) INS-1 cells were seeded at 4×10^5 cells/well in 6-well plates and treated with compounds for the indicated times. […] Relative mRNA levels were normalized against the housekeeping gene Cyclophilin A and were determined by ΔΔCt calculated from the difference in ΔCt values between the target gene and Cyclophilin A with and without treatment, based on comparative CT (cycle threshold) method. […]"}, "PDX1 mRNA": {"tested_on": "PDX1 mRNA", "assay": "qRT-PCR of PDX1 mRNA in Tm-treated INS-1 cells", "assay_type": "cell-based, rat", "details": "Tm co-treatment, 24 h", "procedure": "as §1, §2"}, "MafA mRNA": {"tested_on": "MafA mRNA", "assay": "qRT-PCR of MafA mRNA in Tm-treated INS-1 cells", "assay_type": "cell-based, rat", "details": "Tm co-treatment, 24 h", "procedure": "as §1, §2"}, "INS-1 cells [2]": {"tested_on": "INS-1 cells", "assay": "Glucose-stimulated insulin secretion (ELISA) in Tm-treated INS-1 cells", "assay_type": "cell-based, rat", "details": "Tm 0.1 μg/mL, 24 h, 20 mM glucose", "procedure": "as §1\nINS-1 or primary human islet cells were plated in 96-well plates. The second day, Tm and test compound were added and maintained for 24 h (INS-1) or 48 h (human islets). […] The secreted insulin was measured with insulin ELISA kits (for mouse insulin from Millipore and for human insulin from LifeTech). Cells were lysed with RIPA buffer (50 mM Tris HCl pH 7.4, 1% NP-40, 0.25% sodium deoxycholate, 150 mM NaCl), and total cellular protein was determined with a Bradford protein assay. […]"}}}
{"smiles": "O=C(NCc1ccc(C(F)(F)F)cc1)c1cccc(CN2CCCCC2)c1", "note": "[Compound 13d, N-(4-trifluoromethylphenmethyl)-3-(N-piperidinyl)methyl benzamide]", "values": [{"measurement": "viability of βTC6 cells under Tm treatment (intracellular ATP)", "setting": "βTC6 cells; Tm 0.3 μg/mL", "value": "rescued the viability of βTC6 cells in a dose-dependent manner"}, {"measurement": "effect of compound on its own on β-cell viability", "setting": "βTC6 cells; βTC6 cells, no Tm", "value": "no effect"}, {"measurement": "viable INS-1 cells with Tm co-treatment vs Tm alone", "setting": "INS-1 cells [1]", "value": "significantly more viable INS-1 cells"}, {"measurement": "Tm-suppressed INS1 mRNA level", "setting": "INS1 mRNA", "value": "completely rescued"}, {"measurement": "Tm-decreased PDX1 mRNA expression level", "setting": "PDX1 mRNA", "value": "completely rescued"}, {"measurement": "Tm-decreased MafA mRNA expression level", "setting": "MafA mRNA", "value": "completely rescued"}, {"measurement": "glucose-stimulated insulin secretion (GSIS) in Tm-treated cells", "setting": "INS-1 cells [2]", "value": "significantly rescued"}]}
